According to paper PMC3064523 (Clinical cancer research : an official journal of the …, 2010):
“And” between values parts separate entries of the source, which are not always exact repeats. Equal values may be shown once. “Also recorded” adds a separate entry of the source. Read-outs that look alike come from different tables or passages of the source.

Assays:
histone acetylation = details: at the time of maximal drug concentration; cited from earlier work
[1] = test system: children with refractory solid or CNS tumors; test: Phase 1 trial: dose-limiting and non-dose-limiting toxicities of oral VPA; format: in vivo, human; details: for Description of DLTs: cycle 1
[2] = format: in vivo, human; details: for Total VPA / Free VPA: at PBMC sampling; for CL/F: CL/F (apparent total body clearance) Median +/− SD; for half-life: t1/2 Median +/− SD
[3] = test system: Histone H3 acetylation in PBMCs; test: PBMC histone H3 acetylation, sandwich ELISA; format: in vivo, human; details: for Post-VPA/Pre-VPA AcH3: steady state trough
[4] = test system: Histone H4 acetylation in PBMCs; test: PBMC histone H4 acetylation, sandwich ELISA; format: in vivo, human; details: steady state trough
[5] = test system: children with newly diagnosed high-grade or brainstem gliomas; test: Ongoing phase II trial of VPA and radiation; format: in vivo, human; details: seven children; VPA trough concentrations of 85–115 mcg/ml
human cancers = details: pre-clinical studies; cited from earlier work
[6] = test system: PBMC histone acetylation (AcH3 and AcH4); details: 4 hours after a dose of VPA; cited from earlier work
[7] = Cycle 1 (16 total cycle), 16 evaluable patients
[8] = Cycle 2 to 7 (15 total cycles), 16 evaluable patients
[9] = human, plasma, po, Steady State, Free VPA (n = 4), oral
[10] = human, plasma, po, Steady State, Total VPA (n = 4), oral

In the case of `C/C=C1\NC(=O)[C@H]2CSSCC/C=C/[C@H](CC(=O)N[C@H](C(C)C)C(=O)N2)OC(=O)[C@H](C(C)C)NC1=O` [depsipeptide], the Histone hyper-acetylation (histone acetylation) is given as “histone hyper-acetylation in all patients”.
For `CCCC(CCC)C(=O)O` [VPA, Valproic acid], the “Description of DLTs” value ([1]; Cohort 0 (trough VPA level 75–100 mcg/ml), TID dosing) was “None”, the “Description of DLTs” value ([1]; Cohort 1 (trough VPA level 100–150 mcg/ml), BID dosing) was “grade 3 somnolence; also recorded: Somnolence (1)” and the “Description of DLTs” value ([1]; Cohort 1 (trough VPA level 100–150 mcg/ml), TID dosing) was “grade-3 somnolence and grade-5 hemorrhage/hemothorax; also recorded: Somnolence (1) Pulmonary hemorrhage (1) Dyspnea (1) Hypoxia (1) Hypotension (1) Hypocalcemia (1)”. For the same compound, the “Anemia, non-dose limiting, maximum Grade 1” value [1, 7] was 3, the “Anemia, non-dose limiting, maximum Grade 2” value [1, 7] was 2 and the “Anemia, non-dose limiting, maximum Grade 4” value [1, 7] was 1. The “Dizziness, non-dose limiting, maximum Grade 1” value [1, 7] was 4, the “Fatigue, non-dose limiting, maximum Grade 1” value [1, 7] was 3 and the “Fatigue, non-dose limiting, maximum Grade 2” value [1, 7] was 2. The “Headache, non-dose limiting, maximum Grade 1” value [1, 7] was 1, the “Headache, non-dose limiting, maximum Grade 2” value [1, 7] was 1 and the “Hypoalbuminemia, non-dose limiting, maximum Grade 1” value [1, 7] was 1. The “Hypoalbuminemia, non-dose limiting, maximum Grade 2” value [1, 7] was 2, the “Leukopenia, non-dose limiting, maximum Grade 1” value [1, 7] was 5 and the “Leukopenia, non-dose limiting, maximum Grade 2” value [1, 7] was 1. The “Lymphopenia, non-dose limiting, maximum Grade 1” value [1, 7] was 4, the “Lymphopenia, non-dose limiting, maximum Grade 2” value [1, 7] was 1 and the “Lymphopenia, non-dose limiting, maximum Grade 4” value [1, 7] was 1. The “Nausea, non-dose limiting, maximum Grade 1” value [1, 7] was 1, the “Nausea, non-dose limiting, maximum Grade 3” value [1, 7] was 1 and the “Neutropenia, non-dose limiting, maximum Grade 1” value [1, 7] was 1. The “Somnolence, non-dose limiting, maximum Grade 2” value [1, 7] was 1, the “Thrombocytopenia, non-dose limiting, maximum Grade 1” value [1, 7] was 6 and the “Thrombocytopenia, non-dose limiting, maximum Grade 2” value [1, 7] was 2. For the same compound, the “Vomiting, non-dose limiting, maximum Grade 2” value [1, 7] was 2, the “Anemia, non-dose limiting, maximum Grade 1” value [1, 8] was 2 and the “Anemia, non-dose limiting, maximum Grade 2” value [1, 8] was 1. The “Dizziness, non-dose limiting, maximum Grade 1” value [1, 8] was 1, the “Fatigue, non-dose limiting, maximum Grade 2” value [1, 8] was 1 and the “Headache, non-dose limiting, maximum Grade 2” value [1, 8] was 1. For the same compound, the “Leukopenia, non-dose limiting, maximum Grade 2” value [1, 8] was 1, the “Leukopenia, non-dose limiting, maximum Grade 3” value [1, 8] was 1 and the “Lymphopenia, non-dose limiting, maximum Grade 1” value [1, 8] was 2. For the same compound, the “Lymphopenia, non-dose limiting, maximum Grade 3” value [1, 8] was 1, the “Neutropenia, non-dose limiting, maximum Grade 2” value [1, 8] was 1 and the “Neutropenia, non-dose limiting, maximum Grade 3” value [1, 8] was 1. The “Neutropenia, non-dose limiting, maximum Grade 4” value [1, 8] was 1, the “Thrombocytopenia, non-dose limiting, maximum Grade 1” value [1, 8] was 2 and the “Thrombocytopenia, non-dose limiting, maximum Grade 4” value [1, 8] was 1. For the same compound, the “Total VPA” value ([2]; Patient 536584) was 81.0 µg/mL, the “Total VPA” value ([2]; Patient 712904) was 100.9 µg/mL and the “Total VPA” value ([2]; Patient 714036) was 109.0 µg/mL. For the same compound, the “Total VPA” value ([2]; Patient 734297) was 78.2 µg/mL, the “Free VPA” value ([2]; Patient 747001) was 19.1 µg/mL and the “Total VPA” value ([2]; Patient 747001) was 90.9 µg/mL. The “Total VPA” value ([2]; Patient 752294) was 134.1 µg/mL, the “Free VPA” value ([2]; Patient 757318) was 36.6 µg/mL and the “Total VPA” value ([2]; Patient 757318) was 90.1 µg/mL. For the same compound, the “Free VPA” value ([2]; Patient 769495) was 8.1 µg/mL, the “Total VPA” value ([2]; Patient 769495) was 77.0 µg/mL and the “Free VPA” value ([2]; Patient 770059) was 11 µg/mL. For the same compound, the “Total VPA” value ([2]; Patient 770059) was 105.7 µg/mL, the “Free VPA” value ([2]; Patient 770113) was 8 µg/mL and the “Total VPA” value ([2]; Patient 770113) was 55.7 µg/mL. The “Mean steady state VPA dose” value ([2]; VPA concentration 75–100 mcg/ml, syrup and capsules (n = 2)) was 12.5 ± 3.5 mg/kg, the “Mean steady state VPA dose” value ([2]; VPA concentration 75–100 mcg/ml, syrup only (n = 4)) was 17.5 ± 2.9 mg/kg and the “Mean steady state VPA dose” value ([2]; VPA concentrations 100–150 mcg/ml, syrup and capsules (n = 8)) was 41.3 ± 20.7 mg/kg. For the same compound, the “Mean steady state VPA dose” value ([2]; VPA concentrations 100–150 mcg/ml, syrup only (n = 10)) was 36.0 ± 27.7 mg/kg, the concentration at 9 weeks ([2]; human, plasma, oral) was 123 µg/mL and the concentration at 3 days ([2]; human, plasma, oral, 25 mg/kg/day) was 172 µg/mL. The Vd/F ([2]; human, plasma, po, 25 mg/kg/day) was 0.12 L/kg, the CL/F ([2]; human, plasma, po, 25 mg/kg/day, First dose, Total VPA (n = 4), oral) was 0.2 mL/min/kg and the CL/F [2, 9] was 0.87 mL/min/kg. It also gave a CL/F [2, 10] of 0.133 mL/min/kg, a half-life [2, 9] of 6.5 h and a half-life [2, 10] of 11.4 h. The “Mean final dose of VPA” value ([2]; starting dose 25 mg/kg/day divided b.i.d., trough above 100 mcg/ml) was “exceeded 50 mg/kg/day”, the “Number of dose escalations to achieve targeted concentrations (mean ± SD)” value ([2]; t.i.d. dosing) was 1.3 ± 0.5 and the “Mean final dose of VPA” value ([2]; t.i.d., starting dose 15 mg/kg/day) was “less than 20 mg/kg/day”. The “Free VPA concentration as % of total concentration (mean +/− SD)” value (from here on “Free VPA concentration as % … (mean +/− SD)”) ([2]; total VPA concentration exceeded 125 mcg/ml, 8 measurements) was 44.9 +/− 15.8%, the “Free VPA concentration as % … (mean +/− SD)” value ([2]; total VPA concentrations below 100 mcg/ml, 32 measurements) was 16.8 +/− 6.9% and the “Free VPA concentration as % … (mean +/− SD)” value ([2]; total VPA concentrations between 100–125 mcg/ml, 17 measurements) was 21.3 +/− 11.5%. The “Fraction of free VPA” value ([2]; until total VPA concentrations exceeded 125 mcg/ml) was “less than 0.25”, the “Patients with reduced post-treatment AcH3 and AcH4 levels in PBMCs” value ([3]; 10 patients studied) was “Five” and the “Patients with increased AcH3 and AcH4 levels in PBMCs” value ([3]; 10 patients studied, at trough VPA exposure) was “Five and 5 out of 10”. For the same compound, the “Post-VPA/Pre-VPA AcH3” value ([3]; Patient 712904) was 0.75, the “Post-VPA/Pre-VPA AcH3” value ([3]; Patient 714036) was 0.93 and the “Post-VPA/Pre-VPA AcH3” value ([3]; Patient 734297) was 1.51. The “Post-VPA/Pre-VPA AcH3” value ([3]; Patient 747001) was 0.43, the “Post-VPA/Pre-VPA AcH3” value ([3]; Patient 757318) was 1.44 and the “Post-VPA/Pre-VPA AcH3” value ([3]; Patient 769495) was 1.38. For the same compound, the “Post-VPA/Pre-VPA AcH3” value ([3]; Patient 770113) was 0.90, the “Patients with increased PBMC histone acetylation” value ([3]; of patients studied, steady state, H3 and H4) was 50% and the “Post-VPA/Pre-VPA AcH4” value ([4]; Patient 712904) was 0.75. The “Post-VPA/Pre-VPA AcH4” value ([4]; Patient 714036) was 0.87, the “Post-VPA/Pre-VPA AcH4” value ([4]; Patient 734297) was 1.11 and the “Post-VPA/Pre-VPA AcH4” value ([4]; Patient 747001) was 0.47. The “Post-VPA/Pre-VPA AcH4” value ([4]; Patient 757318) was 1.55, the “Post-VPA/Pre-VPA AcH4” value ([4]; Patient 769495) was 2.45 and the “Post-VPA/Pre-VPA AcH4” value ([4]; Patient 770113) was 0.70. The “Toxicity of radiation and VPA” value [5] was “without encountering neuro-toxicities or other dose-limiting toxicities”, the “Threshold VPA concentration associated with anti-tumor activity” value (human cancers) was “exceeded 100 mcg/ml” and the “Increases in AcH3 and AcH4 in PBMC” value [6] was “observed in all patients”.
